Laboratory results reported in patent publication US10774071B2, “PD-1/PD-L1 inhibitors” (Gilead Sciences, Inc., priority 2018, dated 2020).
Like-named read-outs stand apart in the source and are kept apart here.

Columns and labels:
[1] = biological target: PD-L1 (Homo sapiens (Human), UniProt Q9NZQ7); test: PD-L1/PD-L1 dimerization biochemical protein-protein interaction assay (ALPHA); format: binding; conditions: read-out: AC50 PDL1 Dimer 1 nM
[2] = biological target: PD-1/PD-L1 (Homo sapiens (Human), UniProt Q9NZQ7); test: PD-1/PD-L1 biochemical protein-protein interaction assay (ALPHA); format: binding; conditions: read-out: IC50 PD-L1-PD1
[3] = 0.5 nM His tagged PD-L1 and 0.5 nM FLAG tagged PD-L1, Table 4A
[4] = 0.3 nM His tagged PD-L1, 2.5 nM biotinylated Fc-PD-1, readings of 0.064 nM are equal to or less than 0.064 nM
[5] = 0.5 nM His tagged PD-L1 and 0.5 nM FLAG tagged PD-L1, Table 4B
[6] = 0.3 nM His tagged PD-L1, 2.5 nM biotinylated Fc-PD-1, Table 3B

Sequence of PD-1/PD-L1 (Q9NZQ7 19-238): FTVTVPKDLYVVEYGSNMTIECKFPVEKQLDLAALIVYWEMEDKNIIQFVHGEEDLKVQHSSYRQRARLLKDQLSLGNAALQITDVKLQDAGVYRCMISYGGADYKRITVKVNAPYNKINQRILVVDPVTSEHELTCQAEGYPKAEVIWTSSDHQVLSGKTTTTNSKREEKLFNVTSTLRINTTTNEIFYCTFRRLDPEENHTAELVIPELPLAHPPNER
Sequence of PD-L1 (Q9NZQ7 19-238): as above
Sequence of PD-L1 (Q9NZQ7 19-238): as above

SMILES | AC50 [1, 3] [nM] | IC50 [2, 4] [nM] | AC50 [1, 5] [nM] | IC50 [2, 6] [nM]
COc1nc(-c2cccc(-c3cccc4c3CC[C@@H]4Nc3nc(OC)c(CN[C@H](C(=O)O)C(C)C)nc3C(F)(F)F)c2Cl)ccc1CNC[C@@H]1CCC(=O)N1 [A-105] | 40.6 | ≤ 0.064 |  | 
COc1cc(-c2cccc(-c3cccc4c3CC[C@@H]4Nc3nc(OC)c(CN4CC[C@@H](C(=O)O)C4)nc3C(F)(F)F)c2Cl)cc(F)c1CNC[C@@H]1CCC(=O)N1 [A-31] | 6.84 | ≤ 0.064 |  | 
COc1nc(-c2cccc(-c3cccc4c3CC[C@@H]4Oc3nc(OC)c(C(C)NCCC(=O)O)cc3C(F)(F)F)c2Cl)ccc1CNC[C@@H]1CCC(=O)N1 (some centres unmarked) [B-120] |  |  | 18.2 | 0.064
COc1nc(-c2cccc(-c3cccc4c3CC[C@@H]4Oc3nc(OC)c(CN4CC[C@@H](C(=O)O)C4)cc3C(F)(F)F)c2Cl)ccc1CN[C@H]1C[C@](C)(O)C1 [B-2] |  |  | 17.5 | 0.064
COc1nc(-c2cccc(-c3cccc4c3CC[C@@H]4Nc3nc(OC)c(CN4CCC5CC4(C(=O)O)C5)cc3C(F)(F)F)c2Cl)ccc1CNC[C@@H]1CCC(=O)N1 [A-59] | 7.75 | ≤ 0.064 |  | 
COc1nc(-c2cccc(-c3cccc4c3CC[C@@H]4Nc3nc(OC)c(CN[C@@H](C)C(=O)O)nc3C(F)(F)F)c2Cl)ccc1CNC[C@@H]1CCC(=O)N1 [A-106] | 5.04 | ≤ 0.064 |  | 
COc1nc(-c2cccc(-c3cccc4c3CC[C@@H]4Oc3cnc(CN4CC[C@@H](C(=O)O)C4)c(OC)n3)c2Cl)ccc1CNC[C@@H]1CCC(=O)N1 [B-156] |  |  | 324 | 0.076
COc1nc(-c2cccc(-c3cccc4c3CC[C@@H]4Oc3nc(OC)c(CN[C@@H](C)C(=O)O)cc3C)c2Cl)ccc1CNC[C@@H]1CCC(=O)N1 [B-241] |  |  | 7.58 | 0.064
COc1nc(-c2cccc(-c3cccc4c3CC[C@@H]4Nc3nc(OC)c(CN4CC[C@@H](C(=O)O)C4)cc3C(F)(F)F)c2Cl)ccc1CNC[C@@H]1CCC(=O)N1 [A-4] | 14.3 | ≤ 0.064 |  | 
COc1nc(-c2cccc(-c3cccc4c3CC[C@@H]4Oc3nc(OC)c(CN4C[C@@H]5C[C@]5(C(=O)O)C4)cc3C(F)(F)F)c2Cl)ccc1CNC[C@@H]1CCC(=O)N1 [B-199] |  |  | 17.5 | 0.064
COc1nc(-c2cccc(-c3cccc4c3CC[C@@H]4Oc3nc(OC)c(CN4CC(C(=O)N=S(C)(=O)NC(C)=O)C4)cc3Cl)c2Cl)ccc1CNC[C@@H]1CCC(=O)N1 (some centres unmarked) [B-159] |  |  | 24.9 | 0.064
COc1nc(-c2cccc(-c3cccc4c3CC[C@@H]4Nc3nc(OC)c(CN4C5CCC4(C(=O)O)CC5)cc3C(F)(F)F)c2Cl)ccc1CNC[C@@H]1CCC(=O)N1 [A-61] | 10.6 | ≤ 0.064 |  | 
COc1nc(-c2cccc(-c3cccc4c3CC[C@@H]4Oc3nc(OC)c(CN4[C@@H]5C[C@@H]5C[C@H]4C(=O)O)cc3C(F)(F)F)c2Cl)ccc1CNC[C@@H]1CCC(=O)N1 [B-136] |  |  | 11 | 0.064
COc1nc(-c2cccc(-c3cccc4c3CC[C@@H]4Oc3nc(OC)c(CN4CCC[C@]4(C)C(=O)O)cc3C)c2Cl)ccc1CNC[C@@H]1CCC(=O)N1 [B-238] |  |  | 34.9 | 0.064
COc1nc(O[C@H]2CCc3c(-c4cccc(-c5cnc(CNC[C@@H]6CCC(=O)N6)cn5)c4Cl)cccc32)c(Cl)cc1CN1CC[C@@H](C(=O)O)C1 [B-97] |  |  | 66.4 | 0.064
COc1nc(-c2cccc(-c3cccc4c3CC[C@@H]4Oc3nc(OC)c(CNC4(C(=O)O)CC4)cc3C(F)(F)F)c2Cl)ccc1CN1CC2(CNC(=O)C2)C1 [B-169] |  |  | 11.1 | 0.064
COc1nc(-c2cccc(-c3cccc4c3CC[C@@H]4Oc3nc(OC)c(CN4C5CCC4(C(=O)O)CC5)cc3C(F)(F)F)c2Cl)ccc1CN1CC2(CCC(=O)N2)C1 [B-227] |  |  | 3.12 | 0.064
COc1nc(-c2cccc(-c3cccc4c3CC[C@@H]4Oc3nc(OC)c(CN4CCC(C)(C)C(C(=O)O)C4)cc3Cl)c2Cl)ccc1CNC[C@@H]1CCC(=O)N1 (some centres unmarked) [B-25] |  |  | 17.8 | 0.064
CNC(=O)[C@H](C)NCc1cc(C(F)(F)F)c(O[C@H]2CCc3c(-c4cccc(-c5ccc(CNC[C@@H]6CCC(=O)N6)c(OC)n5)c4Cl)cccc32)nc1OC [B-249] |  |  | 35.5 | 0.065
COc1nc(-c2cccc(-c3cccc4c3CC[C@@H]4Oc3nc(OC)c(CNCCC(=O)O)cc3Cl)c2Cl)ccc1CNC[C@@H]1CCC(=O)N1 [B-27] |  |  | 11.2 | 0.064

SMILES | AC50 [1, 3] [nM] | IC50 [2, 4] [nM] | AC50 [1, 5] [nM] | IC50 [2, 6] [nM]
COc1nc(-c2cccc(-c3cccc4c3CC[C@@H]4Oc3nc(OC)c(CNC45CC(C(=O)O)(C4)C5)cc3Cl)c2Cl)ccc1CNC[C@@H]1CCC(=O)N1 [B-20] |  |  | 33.7 | 0.064
COc1nc(-c2cccc(-c3cccc4c3CC[C@@H]4Oc3nc(OC)c(CN4CC5CCC4(C(=O)O)CC5)cc3C(F)(F)F)c2Cl)ccc1CNC[C@@H]1CCC(=O)N1 [B-134] |  |  | 0.727 | 0.064
COc1nc(-c2cccc(-c3cccc4c3CC[C@@H]4Oc3nc(OC)c(CNCCC(=O)O)cc3C(F)(F)F)c2Cl)ccc1CN[C@H]1C[C@](C)(O)C1 [B-254] |  |  | 11.4 | 0.064
COc1nc(-c2cccc(-c3cccc4c3CC[C@@H]4Nc3nc(OC)c(CN4C[C@H](C)C[C@H]4C(=O)O)cc3C(F)(F)F)c2Cl)ccc1CNC[C@@H]1CCC(=O)N1 [A-78] | 13.5 | ≤ 0.064 |  | 
COc1nc(-c2cccc(-c3cccc4c3CC[C@@H]4Nc3nc(OC)c(CN4CC(C)(O)C4)cc3Cl)c2Cl)ccc1CNC[C@@H]1CCC(=O)N1 [A-6] | 188 | 0.67 |  | 
COc1cc(-c2cccc(-c3cccc4c3CC[C@@H]4Oc3nc(OC)c(CNC4(C(=O)O)CC4)cc3C(F)(F)F)c2Cl)cc(F)c1CNC[C@@H]1CCC(=O)N1 [B-193] |  |  | 3.76 | 0.064
COc1nc(-c2cccc(-c3cccc4c3CC[C@@H]4Nc3nc(OC)c(CN4CC(C(=O)O)C4)cc3C(F)(F)F)c2Cl)ccc1CNC[C@@H]1CCC(=O)N1 [A-55] | 13.2 | ≤ 0.064 |  | 
COc1nc(-c2cccc(-c3cccc4c3CC[C@@H]4Oc3nc(OC)c(CNCC(=O)N(C)C)cc3C(F)(F)F)c2Cl)ccc1CNC[C@@H]1CCC(=O)N1 [B-248] |  |  | 15.9 | 0.097
COc1nc(-c2cccc(-c3cccc4c3CC[C@@H]4Oc3nc(OC)c(CN4CC5CC5(C(=O)O)C4)cc3Cl)c2Cl)ccc1CNC[C@@H]1CCC(=O)N1 (some centres unmarked) [B-99] |  |  | 67.9 | 0.086
COc1nc(-c2cccc(-c3cccc4c3CC[C@@H]4Oc3nc(OC)c(CN4CC[C@H](C(=O)O)C4)cc3Cl)c2Cl)ccc1CNC[C@@H]1CCC(=O)N1 [B-114] |  |  | 20.7 | 0.064
COc1nc(-c2cccc(-c3cccc4c3CC[C@@H]4Nc3nc(OC)c(CN4C[C@@H]5CC[C@H]4[C@@H]5C(=O)O)nc3C(F)(F)F)c2Cl)ccc1CNC[C@@H]1CCC(=O)N1 [A-80] | 19.9 | ≤ 0.064 |  | 
COc1nc(-c2cccc(-c3cccc4c3CC[C@@H]4Nc3nc(OC)c(CN4CC(C(=O)O)C4)cc3C(F)(F)F)c2Cl)ccc1CN1CC(C)(O)C1 [A-54] | 76.6 | ≤ 0.064 |  | 
COc1nc(-c2cccc(-c3cccc4c3CC[C@@H]4Oc3nc(OC)c(CNC(C)(C)CC(=O)O)cc3Cl)c2Cl)ccc1CNC[C@@H]1CCC(=O)N1 [B-197] |  |  | 12.5 | 0.064
COC(=O)C12CCC(CC1)N(Cc1nc(C(F)(F)F)c(N[C@H]3CCc4c(-c5cccc(-c6ccc(CNC[C@@H]7CCC(=O)N7)c(OC)n6)c5Cl)cccc43)nc1OC)C2 [A-82] | 84.9 | 0.14 |  | 
COc1nc(-c2cccc(-c3cccc4c3CC[C@@H]4Oc3nc(OC)c(CNC[C@@H]4CCC(=O)N4)nc3Cl)c2Cl)ccc1CNC[C@@H]1CCC(=O)N1 [B-155] |  |  | 102 | 0.22
COc1nc(O[C@H]2CCc3c(-c4cccc(-c5cc(C)c(CNC[C@@H]6CCC(=O)N6)c(OC)n5)c4Cl)cccc32)c(C)cc1CNC(C)(C)C(=O)O [B-243] |  |  | 15.8 | 0.064
CCC1C(C(=O)O)CCN1Cc1nc(C(F)(F)F)c(N[C@H]2CCc3c(-c4cccc(-c5ccc(CNC[C@@H]6CCC(=O)N6)c(OC)n5)c4Cl)cccc32)nc1OC (some centres unmarked) [A-77] | 26.6 | ≤ 0.064 |  | 
COc1nc(-c2cccc(-c3cccc4c3CC[C@@H]4Oc3nc(OC)c(CN4C[C@@H]5C[C@@H]5[C@H]4C(=O)O)cc3C(F)(F)F)c2Cl)ccc1CNC[C@@H]1CCC(=O)N1 [B-138] |  |  | 11.6 | 0.064
COc1nc(-c2cccc(-c3cccc4c3CC[C@@H]4Nc3nc(OC)c(CN(C)CC(=O)O)nc3C(F)(F)F)c2Cl)ccc1CNC[C@@H]1CCC(=O)N1 [A-34] | 8.26 | ≤ 0.064 |  | 
COc1nc(O[C@H]2CCc3c(-c4cccc(-c5ccc(CNC[C@@H]6CCC(=O)N6)c(OCC#N)n5)c4Cl)cccc32)c(C(F)(F)F)cc1CNC1(C(=O)O)CC1 [B-125] |  |  | 6.79 | 0.064
